These results are taken from US10689404B1, “Preparation method of tetraboronic acid compounds, and tetraboronic acid compounds” (Tamkang University, priority 2019, dated 2020).

Holding throughout (type): cell-based
Assay [1] relates to osteosarcoma cell U2OS. The experiment in a line: Fluorescence microscopy with DAHMI sensor: accumulation in mitochondria versus BPA. As to conditions: osteosarcoma cells, mitochondria stained with Mito tracker Green FM. The procedure: (§1) The tetraboronic acid compound prepared by the preparation method is subjected to a biological experimental test for further discussing the application of the tetraboronic acid compound as a potential drug of the BNCT. Since the BNCT is mainly used for a head and neck cancer, the experiments are performed using osteosarcoma cell U2OS as a material.
(§2) By utilizing the characteristics that a fluorescence sensor (DAHMI) is stably bonded to boric acid, and a complex compound thereof can emit blue fluorescence, whether the tetraboronic acid compound enters cells or not is observed. The tetraboronic acid compound is firstly added to the osteosarcoma cells to act for 24 hours. Next, after the tetraboronic acid compound is washed away, the fluorescence sensor DAHMI is added and soaked for 20 minutes, and the cells are cleaned with phosphate buffered saline (PBS). Finally, the cell nuclei are stained with a TOTO™-3 dye or the mitochondria are stained with a Mito tracker Green FM dye, and the cells are observed under a fluorescence microscope (Model: Leica DM2500 & DM2500 LED Optical microscopes), and the results are shown in FIG. 2.
Referring to FIG. 3, FIG. 3 is a cell fluorescence micrograph of a tetraboronic acid compound and a clinical drug boronophenylalanine (BPA) according to one embodiment of the present invention.

The test system of assay [2] is osteosarcoma cell U2OS. Description: Fluorescence microscopy with DAHMI sensor: entry of the tetraboronic acid compound into the cell nucleus. Conditions: osteosarcoma cells, compound acting 24 hours, 1.0 mM DAHMI at 37° C. for 20 minutes, nuclei stained with TOTO-3. The procedure:
as §1, §2
Referring to FIG. 2, FIG. 2 is a cell fluorescence micrograph of a tetraboronic acid compound entering osteosarcoma cells according to one embodiment of the present invention. […]

The test system of assay [3] is osteosarcoma cell U2OS. Description: Flow cytometry of DAHMI fluorescence content (boron compound content in cells). As to conditions: for Fluorescence content relative to the clinical drug boronophenylalanine: 2.0 mM, ratio to BPA; for Fluorescence content: boron compound 2.0 mM, DAHMI sensor, flow cytometer. Here is the method: as §1
The content of the boron atoms in the osteosarcoma cells is further analyzed, and the fluorescence sensor DAHMI in the cells is excited by a flow cytometer (Model: Thermo Fisher Scientific Attune™ NxT Flow Cytometer) to detect the fluorescence content, thereby analyzing the content of the boron compound bonded to the fluorescence sensor DAHMI. After the osteosarcoma cells are treated with the clinical drug boronophenylalanine (BPA), B3 and B9 respectively, the fluorescence content is detected by the flow cytometer.
A general note: In flow cytometry, cells or beads pass a laser one at a time.

Regarding `O=C(NCc1ccc(B(O)O)cc1)C(c1cccc(B(O)O)c1)N(C(=O)c1ccc(B(O)O)cc1)c1ccc(B(O)O)cc1` (centres unmarked) [Example B3], the “Accumulation in the mitochondria (DAHMI fluorescence brightness level compared with BPA, FIG. 3)” value with osteosarcoma cell U2OS [1] is on record as “more capable of accumulating in the mitochondria than clinical BPA”. Moreover, in the assay on osteosarcoma cell U2OS [2], the “Entry into the cell nucleus (blue DAHMI fluorescence brightness, FIG. 2)” value is recorded as “enter the cell nucleus more easily than other compounds”. Further, in the assay on osteosarcoma cell U2OS [3], the “Fluorescence content relative to the clinical drug boronophenylalanine” value is 1.95 times and the Fluorescence content was determined as 4831 A.u.
In the case of `O=C(NCc1ccc(B(O)O)cc1F)C(c1cc(B(O)O)ccc1F)N(C(=O)c1ccc(B(O)O)cc1F)c1ccc(B(O)O)cc1` (centres unmarked) [Example B9], in the assay with osteosarcoma cell U2OS [1], the “Accumulation in the mitochondria (DAHMI fluorescence brightness level compared with BPA, FIG. 3)” value was “more capable of accumulating in the mitochondria than clinical BPA”. Besides, the “Entry into the cell nucleus (blue DAHMI fluorescence brightness, FIG. 2)” value in the assay on osteosarcoma cell U2OS [2] was “enter the cell nucleus more easily than other compounds”. For the same compound, in the assay with osteosarcoma cell U2OS [3], the “Fluorescence content relative to the clinical drug boronophenylalanine” value is on record as 1.44 times and the Fluorescence content stood at 3568 A.u.
